Source: patent publication US9695155B2, “Herbicidal substituted pyrimidinyloxy benzene compounds” (E. I. DU PONT DE NEMOURS AND COMPANY, priority 2013, dated 2017)

Key:
bromegrass, downy = assay: Test D preemergence; type: in vivo, Bromus tectorum
Text: (§1) Seeds of plant species selected from bluegrass (annual bluegrass, Poa annua), blackgrass (Alopecurus myosuroides), canarygrass (littleseed canarygrass, Phalaris minor), chickweed (common chickweed, Stellaria media), galium (catchweed bedstraw, Galium aparine), bromegrass, downy (downy bromegrass, Bromus tectorum), field poppy (Papaver rhoeas), field violet (Viola arvensis), green foxtail (Setaria viridis), deadnettle (henbit deadnettle, Lamium amplexicaule), Italian ryegrass (Lolium multiflorum), kochia (Kochia scoparia), lambsquarters (Chenopodium album), oilseed rape (Brassica napus), pigweed (Amaranthus retroflexus), chamomile (scentless chamomile, Matricaria inodora), Russian thistle (Salsola kali), speedwell (bird's-eye speedwell, Veronica persica), spring barley (Hordeum vulgare), spring wheat (Triticum aestivum), wild buckwheat (Polygonum convolvulus), wild mustard (Sinapis arvensis), wild oat (Avena fatua), wild radish (Raphanus raphanistrum), windgrass (Apera spica-venti), winter barley (Hordeum vulgare), and winter wheat (Triticum aestivum) were planted into a silt loam soil and treated preemergence with test chemicals formulated in a non-phytotoxic solvent mixture which included a surfactant.
(§2) At the same time, these species were planted in pots containing Redi-Earth® planting medium (Scotts Company, 14111 Scottslawn Road, Marysville, Ohio 43041) comprising spaghnum peat moss, vermiculite, wetting agent and starter nutrients and treated with postemergence applications of the test chemicals formulated in the same manner. Plants ranged in height from 2 to 18 cm (1- to 4-leaf stage). Treated plants and controls were maintained in a controlled growth environment for 7 to 21 days after which time all species were compared to controls and visually evaluated. Plant response ratings, summarized in Table D, are based on a scale of 0 to 100 where 0 is no effect and 100 is complete control. A dash (-) response means no test result.

canarygrass [1] = assay: Test D preemergence; type: in vivo, Phalaris minor
Text: as §1, §2

wild radish = assay: Test D preemergence; type: in vivo, Raphanus raphanistrum
Outline: (§3)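 Values are 0–100 visual control ratings (0 none, 100 complete) given 7–21 days after application. Soil for preemergence was silt loam; postemergence plants stood 2–18 cm tall.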

kochia [2] = assay: Test D preemergence; type: in vivo, Kochia scoparia
Outline: as §3

canarygrass [3] = assay: Test D postemergence; type: in vivo, Phalaris minor
Text: as §1, §2

windgrass = assay: Test D preemergence; type: in vivo, Apera spica-venti
Text: as §1, §2

bluegrass = assay: Test D postemergence; type: in vivo, Poa annua
Outline: as §3

galium [4] = assay: Test D postemergence; type: in vivo, Galium aparine
Text: as §1, §2

galium [5] = assay: Test D preemergence; type: in vivo, Galium aparine
Text: as §1, §2

kochia [6] = assay: Test D postemergence; type: in vivo, Kochia scoparia
Text: as §1, §2

green foxtail = assay: Test D postemergence; type: in vivo, Setaria viridis
Outline: as §3

[7] = 16 g ai/ha, scale 0 (no effect) to 100 (complete control)
[8] = 31 g ai/ha, scale 0 (no effect) to 100 (complete control)
[9] = 31 g ai/ha, scale 0 to 100 (0 no effect, 100 complete control)
[10] = 62 g ai/ha, scale 0 to 100 (0 no effect, 100 complete control)
[11] = 125 g ai/ha, scale 0 to 100 (0 no effect, 100 complete control)

FCc1cccc(Oc2ncc(Cl)cn2)c1-n1cc(I)cn1 [Compound 245] was tested. Which “Plant response rating, Bromegrass, Downy” value (bromegrass, downy; [7]) did it give?
Its value is 0.

And the “Plant response rating, Bromegrass, Downy” value (bromegrass, downy; 31 g ai/ha, scale 0-100)?
The value was 0.

What about the “Plant response rating, Bromegrass, Downy” value (bromegrass, downy; 62 g ai/ha, scale 0-100) of the same compound?
Its value is 35.

And the “Plant response rating, Bromegrass, Downy” value (bromegrass, downy; 125 g ai/ha, scale 0-100)?
The value was 40.

What about the “Plant response rating, Canarygrass” value (canarygrass [1]; [7]) of the same compound?
The value was 0.

And the “Plant response rating, Canarygrass” value (canarygrass [1]; 31 g ai/ha, scale 0-100)?
The value was 0.

And the “Plant response rating, Canarygrass” value (canarygrass [1]; 62 g ai/ha, scale 0-100)?
Its value is 15.

And the “Plant response rating, Canarygrass” value (canarygrass [1]; 125 g ai/ha, scale 0-100)?
Its value is 35.

What about the “Plant response rating, Radish, Wild” value (wild radish; [7]) of the same compound?
The value was 0.

And the “Plant response rating, Radish, Wild” value (wild radish; [8])?
The value was 0.

What about the “Plant response rating, Radish, Wild” value (wild radish; 125 g ai/ha, scale 0-100) of the same compound?
Its value is 85.

What about the “Plant response rating, Kochia” value (kochia [2]; [7]) of the same compound?
Its value is 0.

What about the “Plant response rating, Kochia” value (kochia [2]; 31 g ai/ha, scale 0-100) of the same compound?
Its value is 0.

What about the “Plant response rating, Kochia” value (kochia [2]; 62 g ai/ha, scale 0-100) of the same compound?
Its value is 75.

What about the “Plant response rating, Kochia” value (kochia [2]; 125 g ai/ha, scale 0-100) of the same compound?
Its value is 75.

And the “Plant response rating, Canarygrass” value (canarygrass [3]; 16 g ai/ha, scale 0-100)?
Its value is 0.

What about the “Plant response rating, Canarygrass” value (canarygrass [3]; [9]) of the same compound?
Its value is 20.

What about the “Plant response rating, Canarygrass” value (canarygrass [3]; [10]) of the same compound?
The value was 25.

What about the “Plant response rating, Canarygrass” value (canarygrass [3]; [11]) of the same compound?
The value was 35.

And the “Plant response rating, Windgrass” value (windgrass; [7])?
Its value is 5.

What about the “Plant response rating, Windgrass” value (windgrass; [8]) of the same compound?
The value was 15.

And the “Plant response rating, Windgrass” value (windgrass; 125 g ai/ha, scale 0-100)?
Its value is 60.

What about the “Plant response rating, Bluegrass” value (bluegrass; Postemergence, 62 g ai/ha, scale 0 to 100 (0 no effect, 100 complete control)) of the same compound?
The value was 15.

What about the “Plant response rating, Bluegrass” value (bluegrass; Postemergence, 31 g ai/ha, scale 0 to 100 (0 no effect, 100 complete control)) of the same compound?
The value was 20.

And the “Plant response rating, Bluegrass” value (bluegrass; Postemergence, 125 g ai/ha, scale 0 to 100 (0 no effect, 100 complete control))?
The value was 30.

And the “Plant response rating, Bluegrass” value (bluegrass; postemergence, 16 g ai/ha, scale 0 to 100, 0 no effect, 100 complete control)?
The value was 10.

And the “Plant response rating, Galium” value (galium [4]; 16 g ai/ha, scale 0-100)?
Its value is 70.

What about the “Plant response rating, Galium” value (galium [4]; [9]) of the same compound?
Its value is 75.

And the “Plant response rating, Galium” value (galium [4]; [10])?
The value was 90.

And the “Plant response rating, Galium” value (galium [4]; [11])?
The value was 98.

What about the “Plant response rating, Galium” value (galium [5]; [7]) of the same compound?
Its value is 0.

And the “Plant response rating, Galium” value (galium [5]; 31 g ai/ha, scale 0-100)?
The value was 0.

What about the “Plant response rating, Galium” value (galium [5]; 62 g ai/ha, scale 0-100) of the same compound?
The value was 5.

What about the “Plant response rating, Galium” value (galium [5]; 125 g ai/ha, scale 0-100) of the same compound?
Its value is 85.

What about the “Plant response rating, Kochia” value (kochia [6]; 16 g ai/ha, scale 0-100) of the same compound?
The value was 25.

What about the “Plant response rating, Kochia” value (kochia [6]; [9]) of the same compound?
Its value is 70.

What about the “Plant response rating, Kochia” value (kochia [6]; [10]) of the same compound?
Its value is 90.

What about the “Plant response rating, Kochia” value (kochia [6]; [11]) of the same compound?
The value was 90.

What about the “Plant response rating, Foxtail, Green” value (green foxtail; 16 g ai/ha, scale 0-100) of the same compound?
The value was 10.

What about the “Plant response rating, Foxtail, Green” value (green foxtail; [9]) of the same compound?
Its value is 20.

What about the “Plant response rating, Foxtail, Green” value (green foxtail; [10]) of the same compound?
The value was 35.

What about the “Plant response rating, Foxtail, Green” value (green foxtail; [11]) of the same compound?
The value was 45.
